The values that follow come from patent publication US11344554B2, “Animal and human anti-malarial agents” (Celgene Corporation, priority 2016, dated 2022).

Structures are written as SMILES. pIC50: −log10 of the molar value.

In the experiment the test system is Plasmodium falciparum. As to the kind of experiment: Plasmodium falciparum in vitro [3H]-hypoxanthine parasite growth inhibition assay. The experiment is classed as cell-based. Particulars: Erythrocyte, P. falciparum asexual blood stage parasites in human erythrocytes, [3H]-hypoxanthine uptake, read-out: Act Class (IC50 activity level).
Usually pIC50 stands for the IC50 on a negative log10 scale, so that one unit is a factor of ten. As to `CC(C)(C)Nc1ncc2nc(Nc3cccc(Cl)c3)n(CCn3ccnc3)c2n1` [Cpd 1, 9-(2-(1H-imidazol-1-yl)ethyl)-N2-tert-butyl-N8-(3-chlorophenyl)-9H-purine-2,8-diamine], the pIC50 was 6.30 to 6.70. Turning to `CC(C)(C)Nc1ncc2nc(Nc3ccc(C(F)(F)F)cc3)n(C3CCNCC3)c2n1` [Cpd 2, N2-tert-butyl-9-(piperidin-4-yl)-N8-(4-(trifluoromethyl)phenyl)-9H-purine-2,8-diamine], the negative logarithm of the IC50 (pIC50) was 6.30 to 6.70. Take `CC(C)(C)Nc1ncc2nc(Nc3cccc(C(F)(F)F)c3)n(C3CCNCC3)c2n1` [Cpd 3, N2-tert-butyl-9-(piperidin-4-yl)-N8-(3-(trifluoromethyl)phenyl)-9H-purine-2,8-diamine]: the pIC50 is > 7.00. With `CC(C)(C)Nc1ncc2nc(Nc3cccc(C(F)(F)F)c3)n(C3CCN(CCN)CC3)c2n1` [Cpd 4, 9-(1-(2-aminoethyl)piperidin-4-yl)-N2-tert-butyl-N8-(3-(trifluoromethyl)phenyl)-9H-purine-2,8-diamine], the negative logarithm of the IC50 (pIC50) is > 7.00. Next, `CC(C)(C)Nc1ncc2nc(Nc3ccc(C(F)(F)F)cc3)n(C3CCN(CCN)CC3)c2n1` [Cpd 5, 9-(1-(2-aminoethyl)piperidin-4-yl)-N2-tert-butyl-N8-(4-(trifluoromethyl)phenyl)-9H-purine-2,8-diamine]: 6.70 to 7.00.

On to `CC(C)(C)Nc1ncc2nc(Nc3ccc(Cl)c(Cl)c3)n(C3CCNCC3)c2n1` [Cpd 6, N2-tert-butyl-N8-(3,4-dichlorophenyl)-9-(piperidin-4-yl)-9H-purine-2,8-diamine], for which the negative-log IC50 (pIC50) is > 7.00.

For `CC(C)(C)Nc1ncc2nc(Nc3ccc(Cl)cc3)n(C3CCNCC3)c2n1` [Cpd 7, N2-tert-butyl-N8-(4-chlorophenyl)-9-(piperidin-4-yl)-9H-purine-2,8-diamine], the negative logarithm of the IC50 (pIC50) is 6.70 to 7.00. Next, `CC(C)(C)Nc1ncc2nc(Nc3cccc(C(F)(F)F)c3)n(CCCN)c2n1` [Cpd 11, 9-(3-aminopropyl)-N2-tert-butyl-N8-(3-(trifluoromethyl)phenyl)-9H-purine-2,8-diamine]: 6.30 to 6.70; `CC(C)(C)Nc1ncc2nc(Nc3ccc(C#N)cc3)n(C3CCNCC3)c2n1` [Cpd 14, 4-(2-(tert-butylamino)-9-(piperidin-4-yl)-9H-purin-8-ylamino)benzonitrile]: 5.92 to 6.30; `CC1(Nc2ncc3nc(Nc4ccc(C(F)(F)F)cc4)n(C4CCNCC4)c3n2)CCOCC1` [Cpd 15, N2-(4-methyltetrahydro-2H-pyran-4-yl)-9-(piperidin-4-yl)-N8-(4-(trifluoromethyl)phenyl)-9H-purine-2,8-diamine]: 6.70 to 7.00. Next, `CC1(Nc2ncc3nc(Nc4cccc(Cl)c4)n(CCN4CCCCC4)c3n2)CCOCC1` [Cpd 16, N8-(3-chlorophenyl)-N2-(4-methyltetrahydro-2H-pyran-4-yl)-9-(2-(piperidin-1-yl)ethyl)-9H-purine-2,8-diamine]: 5.92 to 6.30; `CC1(Nc2ncc3nc(Nc4cccc(Cl)c4)n(CCN4CCCC4)c3n2)CCOCC1` [Cpd 17, N8-(3-chlorophenyl)-N2-(4-methyltetrahydro-2H-pyran-4-yl)-9-(2-(pyrrolidin-1-yl)ethyl)-9H-purine-2,8-diamine]: 5.92 to 6.30. The value for `CC(C)(C)Nc1ncc2nc(Nc3cccc(C(F)(F)F)c3)n(CCC3CCNC3)c2n1` (centres unmarked) [Cpd 18, N2-tert-butyl-9-(2-(pyrrolidin-3-yl)ethyl)-N8-(3-(trifluoromethyl)phenyl)-9H-purine-2,8-diamine] was 6.70 to 7.00; that for `CC(C)(C)Nc1ncc2nc(Nc3cccc(C(F)(F)F)c3)n(CCC3CCCN3)c2n1` (centres unmarked) [Cpd 19, N2-tert-butyl-9-(2-(pyrrolidin-2-yl)ethyl)-N8-(3-(trifluoromethyl)phenyl)-9H-purine-2,8-diamine] was 6.30 to 6.70; that for `CC(C)(C)Nc1ncc2nc(Nc3cc(Cl)cc(Cl)c3)n(C3CCNCC3)c2n1` [Cpd 20, N2-tert-butyl-N8-(3,5-dichlorophenyl)-9-(piperidin-4-yl)-9H-purine-2,8-diamine] was > 7.00. On to `CC(C)(C)Nc1ncc2nc(Nc3ccc(OC(F)(F)F)cc3)n(C3CCNCC3)c2n1` [Cpd 21, N2-tert-butyl-9-(piperidin-4-yl)-N8-(4-(trifluoromethoxy)phenyl)-9H-purine-2,8-diamine], for which the pIC50 was 6.70 to 7.00.

As to `CC(C)(C)Nc1ncc2nc(Nc3cccc(C(F)(F)F)c3)n(CCN3CCNCC3)c2n1` [Cpd 22, N2-tert-butyl-9-(2-(piperazin-1-yl)ethyl)-N8-(3-(trifluoromethyl)phenyl)-9H-purine-2,8-diamine], the pIC50 is 5.92 to 6.30. In the case of `CC(C)(C)Nc1ncc2nc(Nc3cccc(C(F)(F)F)c3)n(CC3CCNCC3)c2n1` [Cpd 23, N2-tert-butyl-9-(piperidin-4-ylmethyl)-N8-(3-(trifluoromethyl)phenyl)-9H-purine-2,8-diamine], the pIC50 is 5.92 to 6.30. Next, `CC(C)(C)Nc1ncc2nc(Nc3cccc(C(F)(F)F)c3)n(CC3CCNC3)c2n1` (centres unmarked) [Cpd 24, N2-tert-butyl-9-(pyrrolidin-3-ylmethyl)-N8-(3-(trifluoromethyl)phenyl)-9H-purine-2,8-diamine]: 6.30 to 6.70; `CC1(Nc2ncc3nc(Nc4cccc(C(F)(F)F)c4)n(C4CCNCC4)c3n2)CCOCC1` [Cpd 25, N2-(4-methyltetrahydro-2H-pyran-4-yl)-9-(piperidin-4-yl)-N8-(3-(trifluoromethyl)phenyl)-9H-purine-2,8-diamine]: 5.92 to 6.30; `CC(C)(C)Nc1ncc2nc(Nc3cc(F)cc(Cl)c3)n(C3CCNCC3)c2n1` [Cpd 26, N2-tert-butyl-N8-(3-chloro-5-fluorophenyl)-9-(piperidin-4-yl)-9H-purine-2,8-diamine]: > 7.00. As for `CC(C)(C)Nc1ncc2nc(Nc3cc(Cl)cc(C(F)(F)F)c3)n(C3CCNCC3)c2n1` [Cpd 27, N2-tert-butyl-N8-(3-chloro-5-(trifluoromethyl)phenyl)-9-(piperidin-4-yl)-9H-purine-2,8-diamine], the pIC50 was > 7.00. Next, `CC(C)(C)Nc1ncc2nc(Nc3cc(F)cc(F)c3)n(C3CCNCC3)c2n1` [Cpd 28, N2-tert-butyl-N8-(3,5-difluorophenyl)-9-(piperidin-4-yl)-9H-purine-2,8-diamine]: 6.70 to 7.00; `CC(C)(C)Nc1ncc2nc(Nc3cccc(OC(F)(F)F)c3)n(C3CCNCC3)c2n1` [Cpd 29, N2-tert-butyl-9-(piperidin-4-yl)-N8-(3-(trifluoromethoxy)phenyl)-9H-purine-2,8-diamine]: > 7.00; `CC(C)(C)Nc1ncc2nc(Nc3cncc(Cl)c3)n(C3CCNCC3)c2n1` [Cpd 30, N2-tert-butyl-N8-(5-chloropyridin-3-yl)-9-(piperidin-4-yl)-9H-purine-2,8-diamine]: 5.92 to 6.30. The value for `CC(C)(C)Nc1ncc2nc(Nc3ccnc(C(F)(F)F)c3)n(C3CCNCC3)c2n1` [Cpd 31, N2-tert-butyl-9-(piperidin-4-yl)-N8-(2-(trifluoromethyl)pyridin-4-yl)-9H-purine-2,8-diamine] was 6.30 to 6.70. Regarding `CN(C)CCCn1c(Nc2cccc(C(F)(F)F)c2)nc2cnc(NC(C)(C)C)nc21` [Cpd 32, N2-tert-butyl-9-(3-(dimethylamino)propyl)-N8-(3-(trifluoromethyl)phenyl)-9H-purine-2,8-diamine], the pIC50 was 5.92 to 6.30. On to `CC(C)(C)Nc1ncc2nc(Nc3cccc(C(F)F)c3)n(C3CCNCC3)c2n1` [Cpd 33, N2-tert-butyl-N8-(3-(difluoromethyl)phenyl)-9-(piperidin-4-yl)-9H-purine-2,8-diamine], for which the pIC50 is 6.30 to 6.70.

For `Clc1cc(Cl)cc(Nc2nc3cnc(NC4CC4)nc3n2C2CCNCC2)c1` [Cpd 34, N2-cyclopropyl-N8-(3,5-dichlorophenyl)-9-(piperidin-4-yl)-9H-purine-2,8-diamine], the negative logarithm of the IC50 (pIC50) was 6.30 to 6.70. With `CC(C)(C)Nc1ncc2nc(Nc3cc(Cl)cc(Cl)c3)n(C3CCN(CCN)CC3)c2n1` [Cpd 35, 9-(1-(2-aminoethyl)piperidin-4-yl)-N2-tert-butyl-N8-(3,5-dichlorophenyl)-9H-purine-2,8-diamine], the negative logarithm of the IC50 (pIC50) is 6.30 to 6.70. Next, `CN1CCC(n2c(Nc3ccc(Cl)c(Cl)c3)nc3cnc(NC(C)(C)C)nc32)CC1` [Cpd 36, N2-tert-butyl-N8-(3,4-dichlorophenyl)-9-(1-methylpiperidin-4-yl)-9H-purine-2,8-diamine]: > 7.00; `CCN1CCC(n2c(Nc3ccc(Cl)c(Cl)c3)nc3cnc(NC(C)(C)C)nc32)CC1` [Cpd 37, N2-tert-butyl-N8-(3,4-dichlorophenyl)-9-(1-ethylpiperidin-4-yl)-9H-purine-2,8-diamine]: > 7.00. Next, `CC(C)(C)Nc1ncc2nc(Nc3cc(Cl)cc(C(F)(F)F)c3)n(C3CCN(CCN)CC3)c2n1` [Cpd 39, 9-(1-(2-aminoethyl)piperidin-4-yl)-N2-tert-butyl-N8-(3-chloro-5-(trifluoromethyl)phenyl)-9H-purine-2,8-diamine]: > 7.00; `FC(F)(F)c1cc(Cl)cc(Nc2nc3cnc(NC4CC4)nc3n2C2CCNCC2)c1` [Cpd 40, N8-(3-chloro-5-(trifluoromethyl)phenyl)-N2-cyclopropyl-9-(piperidin-4-yl)-9H-purine-2,8-diamine]: > 7.00. In the case of `CC1(Nc2ncc3nc(Nc4cc(Cl)cc(Cl)c4)n(C4CCNCC4)c3n2)CC1` [Cpd 41, N8-(3,5-dichlorophenyl)-N2-(1-methylcyclopropyl)-9-(piperidin-4-yl)-9H-purine-2,8-diamine], the pIC50 is > 7.00.

As to `CC1(Nc2ncc3nc(Nc4cc(Cl)cc(C(F)(F)F)c4)n(C4CCNCC4)c3n2)CC1` [Cpd 42, N8-(3-chloro-5-(trifluoromethyl)phenyl)-N2-(1-methylcyclopropyl)-9-(piperidin-4-yl)-9H-purine-2,8-diamine], the pIC50 was > 7.00. In the case of `CC(C)Nc1ncc2nc(Nc3cc(Cl)cc(Cl)c3)n(C3CCNCC3)c2n1` [Cpd 43, N8-(3,5-dichlorophenyl)-N2-isopropyl-9-(piperidin-4-yl)-9H-purine-2,8-diamine], the pIC50 is > 7.00.

For the molecule `CC(C)Nc1ncc2nc(Nc3cc(Cl)cc(C(F)(F)F)c3)n(C3CCNCC3)c2n1` [Cpd 44, N8-(3-chloro-5-(trifluoromethyl)phenyl)-N2-isopropyl-9-(piperidin-4-yl)-9H-purine-2,8-diamine], the pIC50 is > 7.00.
